Assay results as given in publication PMC10818515, “Improvement of the Thermal Stability and Aqueous Solubility of Three Matrine Salts Assembled by the Similar Structure Salt Formers” (Pharmaceuticals, 2024).
≈ marks a conversion by molar mass, not a printed value. Like-named read-outs stand apart in the source and are kept apart here.

Assay: Equilibrium solubility by the shake flask method
Type: physicochemical
Details: 37 °C; for solubility thermodynamic at 72 h: thermodynamic from solid, read-out: Equilibrium solubility, Concentration; for solubility thermodynamic at 72 h / Equilibrium solubility, Concentration: n = 3
Method: Aqueous solubility is one of the key factors affecting the bioavailability of drugs. […] Generally, the charged part has high aqueous solubility. […] The concentration of the samples was analyzed through high-performance liquid chromatography. The mobile phase consisted of methanol, acetonitrile, and phosphate buffer (15:15:70).

SMILES	solubility thermodynamic at 72 h (aqueous buffer, pH = 4.5 acetic acid buffer) [mg/mL]	solubility thermodynamic at 72 h (aqueous buffer, pH = 6.8 phosphate buffer) [mg/mL]	solubility thermodynamic at 72 h (simulated gastric fluid, pH = 1.2 hydrochloric acid solution) [mg/mL]	solubility thermodynamic at 72 h (H2O (purified water)) [mg/mL]	Equilibrium solubility, Concentration (H2O (purified water)) [mg/mL]	Solubility relative to that of MAT (acetate buffer (pH 4.5)) [times]	Solubility relative to that of MAT (hydrochloric acid solution (pH 1.2)) [times]	Equilibrium solubility, Concentration (pH = 1.2 hydrochloric acid solution) [mg/mL]	Equilibrium solubility, Concentration (pH = 4.5 acetic acid buffer) [mg/mL]	Equilibrium solubility, Concentration (pH = 6.8 phosphate buffer) [mg/mL]	Solubility relative to that of MAT (phosphate buffer (pH 6.8)) [times]	Solubility relative to that of MAT (pure water) [times]
O=C1CCC[C@@H]2[C@H]3CCCN4CCC[C@@H](CN12)[C@@H]34 [MAT, Matrine]	91.8 ± 2.31 (≈ 370 mM)	64.9 ± 1.13 (≈ 261 mM)	90.9 ± 1.01 (≈ 366 mM)	65.36 ± 0.53 (≈ 263 mM)	–	–	–	–	–	–	–	–
O=C(O)c1c(O)cccc1O.O=C1CCCC2C3CCCN4CCCC(CN12)C34 (stereo not drawn) [MAT-26DHB, MAT-2,6-dihydroxybenzoic acid]	–	–	–	–	7.42 ± 0.45	0.09	0.14	13.08 ± 1.52	8.23 ± 0.10	5.71 ± 0.75	0.09	0.11
